Laboratory results reported in patent US9145372B2, “Pyridazine derivatives, compositions and methods for treating cognitive impairment” (AGENEBIO, INC., priority 2010, dated 2015).
“Also recorded” adds a separate entry of the source.

Assays:
[1] = target: GABAA α5 receptor (Rattus norvegicus, UniProt P18508+P19969); assay: GABAA α5 receptor occupancy in vivo with Ro 15-4513 tracer (hippocampus vs cerebellum)
From the text: Adult male Long Evans rats (265-295 g, Charles River, Portage, Mich., n=4/group) were used for GABAA α5 receptor occupancy studies. Rats were individually housed in ventilated stainless-steel racks on a 12:12 light/dark cycle. Food and water were available ad libitum.
Ro 15-4513 was used as a receptor occupancy (RO) tracer for GABAA α5 receptor sites in the hippocampus and cerebellum. Ro 15-4513 was chosen as the tracer based on its selectivity for GABAA α5 receptors relative to other alpha subunit containing GABAA receptors and because it has been successfully used for GABAA α5 RO studies in animals and humans (see, e.g., Lingford-Hughes et al., J. Cereb. Blood Flow Metab. 22:878-89 (2002); Pym et al, Br. J. Pharmacol. 146: 817-825 (2005); and Maeda et al., Synapse 47: 200-208 (2003)). Ro 15-4513 (1 μg/kg), was dissolved in 25% hydroxyl-propyl beta-cyclodextrin and administered i.v. 20′ prior to the RO evaluations. Methyl 3,5-diphenylpyridazine-4-carboxylate (0.1-10 mg/kg) was synthesized by Nox Pharmaceuticals (India) and was dissolved in 25% hydroxyl-propyl beta-cyclodextrin and administered i.v. 15′ prior to tracer injection.
The rats were sacrificed by cervical dislocation 20′ post tracer injection. The whole brain was rapidly removed, and lightly rinsed with sterile water. Trunk blood was collected in EDTA coated eppendorf tubes and stored on wet ice until study completion. Hippocampus and cerebellum were dissected and stored in 1.5 ml eppendorf tubes, and placed on wet ice until tissue extraction. In a drug naïve rat, six cortical brain tissues samples were collected for use in generating blank and standard curve samples.
Acetonitrile containing 0.1% formic acid was added to each sample at a volume of four times the weight of the tissue sample. For the standard curve (0.1-30 ng/g) samples, a calculated volume of standard reduced the volume of acetonitrile. The sample was homogenized (FastPrep-24, Lysing Matrix D; 5.5 m/s, for 60 seconds or 7-8 watts power using sonic probe dismembrator; Fisher Scientific) and centrifuged for 16-minutes at 14,000 rpm. The (100 μl) supernatant solution was diluted by 300 μl of sterile water (pH 6.5). This solution was then mixed thoroughly and analyzed via LC/MS/MS for […] (tracer) and methyl 3,5-diphenylpyridazine-4-carboxylate.
Receptor occupancy was determined by the ratio method which compared occupancy in the hippocampus (a region of high GABAA α5 receptor density) with occupancy in the cerebellum (a region with low GABAA α5 receptor density) and additionally by a high dose of the GABAA α5 negative allosteric modulator L-655,708 (10 mg/kg, i.v.) to define full occupancy.

[2] = target: T1, α5-containing GABAA R (Homo sapiens, UniProt P18507+P31644); conditions: at GABA EC20; van Niel et al.; cited from earlier work
T1 sequence (P31644 32-462): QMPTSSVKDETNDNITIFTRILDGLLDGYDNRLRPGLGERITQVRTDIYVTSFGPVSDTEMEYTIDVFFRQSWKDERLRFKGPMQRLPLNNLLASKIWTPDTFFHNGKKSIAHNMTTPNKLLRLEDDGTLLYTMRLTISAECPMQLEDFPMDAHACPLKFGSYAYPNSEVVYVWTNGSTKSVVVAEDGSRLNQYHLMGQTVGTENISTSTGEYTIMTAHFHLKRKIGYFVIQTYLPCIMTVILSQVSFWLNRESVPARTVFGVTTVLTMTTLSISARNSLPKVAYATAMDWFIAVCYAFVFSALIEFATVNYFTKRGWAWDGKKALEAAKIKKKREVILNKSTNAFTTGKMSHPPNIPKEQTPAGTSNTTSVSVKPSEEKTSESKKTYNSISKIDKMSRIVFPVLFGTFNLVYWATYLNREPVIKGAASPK
T1 sequence (P28472 26-473 partner): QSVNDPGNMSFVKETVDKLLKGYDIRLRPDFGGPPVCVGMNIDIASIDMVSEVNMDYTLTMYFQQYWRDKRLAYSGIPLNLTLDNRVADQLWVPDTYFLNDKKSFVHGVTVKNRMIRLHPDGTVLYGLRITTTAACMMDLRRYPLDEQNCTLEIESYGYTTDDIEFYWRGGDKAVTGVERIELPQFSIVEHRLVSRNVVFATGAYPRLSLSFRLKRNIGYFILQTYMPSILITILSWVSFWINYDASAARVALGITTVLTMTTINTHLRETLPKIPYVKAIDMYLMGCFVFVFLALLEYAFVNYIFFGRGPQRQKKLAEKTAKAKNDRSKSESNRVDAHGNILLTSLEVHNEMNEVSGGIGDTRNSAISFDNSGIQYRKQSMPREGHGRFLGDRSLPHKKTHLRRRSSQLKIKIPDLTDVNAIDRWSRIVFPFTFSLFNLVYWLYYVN
T1 sequence (P18507 40-467 limits assumed): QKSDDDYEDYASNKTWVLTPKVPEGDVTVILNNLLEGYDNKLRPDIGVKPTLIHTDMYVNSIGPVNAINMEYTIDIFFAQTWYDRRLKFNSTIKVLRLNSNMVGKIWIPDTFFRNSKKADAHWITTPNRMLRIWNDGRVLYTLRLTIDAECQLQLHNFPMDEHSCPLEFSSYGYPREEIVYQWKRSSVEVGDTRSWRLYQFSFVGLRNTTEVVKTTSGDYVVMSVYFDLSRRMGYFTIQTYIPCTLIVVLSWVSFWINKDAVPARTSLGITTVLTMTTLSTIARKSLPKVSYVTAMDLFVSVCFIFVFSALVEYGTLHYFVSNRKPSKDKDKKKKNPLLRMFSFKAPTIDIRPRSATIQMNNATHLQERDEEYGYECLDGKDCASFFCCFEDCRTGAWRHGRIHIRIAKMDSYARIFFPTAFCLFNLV

Chain of GABAA α5 receptor (P19969 32-464 limits assumed): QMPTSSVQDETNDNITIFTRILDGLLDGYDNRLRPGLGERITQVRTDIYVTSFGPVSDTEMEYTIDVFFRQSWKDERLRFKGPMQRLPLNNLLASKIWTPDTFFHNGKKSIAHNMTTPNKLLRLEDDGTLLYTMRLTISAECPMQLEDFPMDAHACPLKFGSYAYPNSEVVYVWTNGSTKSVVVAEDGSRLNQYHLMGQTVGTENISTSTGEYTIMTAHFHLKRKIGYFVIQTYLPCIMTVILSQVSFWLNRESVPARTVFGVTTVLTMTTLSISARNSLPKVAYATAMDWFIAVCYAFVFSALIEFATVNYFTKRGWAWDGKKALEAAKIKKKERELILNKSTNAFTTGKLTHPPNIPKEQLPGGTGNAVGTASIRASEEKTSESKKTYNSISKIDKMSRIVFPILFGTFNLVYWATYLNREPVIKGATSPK
Chain of GABAA α5 receptor (P18508 39-466): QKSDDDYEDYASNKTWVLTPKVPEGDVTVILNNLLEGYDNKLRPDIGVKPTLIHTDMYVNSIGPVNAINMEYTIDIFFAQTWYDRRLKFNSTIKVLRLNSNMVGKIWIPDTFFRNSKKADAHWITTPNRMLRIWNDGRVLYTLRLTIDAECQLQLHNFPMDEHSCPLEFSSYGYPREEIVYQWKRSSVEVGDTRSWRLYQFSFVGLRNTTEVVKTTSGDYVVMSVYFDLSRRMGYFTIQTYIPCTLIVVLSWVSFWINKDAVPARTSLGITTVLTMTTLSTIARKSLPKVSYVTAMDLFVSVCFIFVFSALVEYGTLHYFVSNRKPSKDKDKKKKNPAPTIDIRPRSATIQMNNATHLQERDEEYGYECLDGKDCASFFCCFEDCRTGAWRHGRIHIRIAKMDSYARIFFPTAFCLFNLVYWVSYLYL
Chain of GABAA α5 receptor (P63079 26-473 partner): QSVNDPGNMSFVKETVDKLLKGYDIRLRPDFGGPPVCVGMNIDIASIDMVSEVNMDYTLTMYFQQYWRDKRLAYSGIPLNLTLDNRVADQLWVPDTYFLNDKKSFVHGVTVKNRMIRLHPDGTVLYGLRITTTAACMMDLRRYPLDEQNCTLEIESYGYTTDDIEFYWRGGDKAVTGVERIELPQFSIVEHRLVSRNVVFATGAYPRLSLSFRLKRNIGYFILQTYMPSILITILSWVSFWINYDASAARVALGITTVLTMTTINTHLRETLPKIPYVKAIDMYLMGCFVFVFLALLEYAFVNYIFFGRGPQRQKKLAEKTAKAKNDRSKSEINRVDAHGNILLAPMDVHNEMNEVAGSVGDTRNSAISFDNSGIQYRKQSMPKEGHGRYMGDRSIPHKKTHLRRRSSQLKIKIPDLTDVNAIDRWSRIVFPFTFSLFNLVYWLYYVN

SMILES: COC(=O)c1c(-c2ccccc2)cnnc1-c1ccccc1 [methyl 3,5-diphenylpyridazine-4-carboxylate]
- Ro 15-4513 binding in hippocampus ([1]; 0.01-10 mg/kg, i.v.): blocked; also recorded: dose-dependently reduced
- cerebellum levels (binding) of Ro 15-4513 ([1]; 0.01-10 mg/kg, i.v.): did not affect; also recorded: without affecting
- GABAA α5 receptors occupied at exposures behaviorally active in aged-impaired rats ([1]; hippocampus, FIG. 5): about 32%
- ED50 of receptor occupancy, ratio method ([1]; i.v., hippocampus/cerebellum ratio method): 1.8 mg/kg
- receptor occupancy at 10 mg/kg ([1]; rat, iv, read-out: GABAA α5 receptor occupancy): > 90%
- receptor occupancy at 1 mg/kg ([1]; rat, iv, read-out: receptor occupancy at an exposure of 180 ng/g in hippocampus): 32 to 39%
- α5 in vitro efficacy (EC20) [2]: +27
